Where a SMILES comes first, the peptide text is derived from it. Where no end group is shown, it is not given here. The star is where a group is joined. Myristoyl = CCCCCCCCCCCCCC(=O)*
Tests used:
[1] = test system: fasted C57BL/6 mice; assay: Food intake in fasted mice after SC administration; assay type: in vivo, mouse; conditions: for food intake / % control: SC administration, dose not stated for these substances; for % control: food intake vs saline
Summary of the method: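 Male C57BL/6 mice, food-deprived 17 h, received saline, PrRP or lipidated analogs either SC at 1-10 mg/kg or ICV into the third ventricle at 4 nmol/mouse.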

[2] = test system: Rhesus monkey; assay type: in vivo; conditions: single SC 1.0 mg/kg or 2.0 mg/kg, overnight fasted, between 1-6 hours, vs saline
Method: Food intake (amount of pellets consumed) was measured in Rhesus monkey (n=4) after a single subcutaneous administration of myristoylated human PrRP20 (analog no. 55).
The study was conducted on overnight fasted animals in Meditox breeding facility (Konárovice, Czech Republic). Each animal received a subcutaneous injection of saline, or of analog 55 in a dose of 1.0 mg/kg or 2.0 mg/kg. Test item formulation was prepared in saline solution as a fresh solution, just before dosing. […] Food intake monitoring was performed 2, 4, 8 and 24 hours after single administration. […] While preferred embodiments of the present invention have been shown and described herein, it will be obvious to those skilled in the art that such embodiments are provided by way of example only. Numerous variations, changes, and substitutions will now occur to those skilled in the art without departing from the invention. It should be understood that various alternatives to the embodiments of the invention described herein may be employed in practicing the invention. It is intended that the following claims define the scope of the invention and that methods and structures within the scope of these claims and their equivalents be covered thereby.

[3] = test system: fasted C57BL/6 mice; conditions: central administration, Maixnerová et al., 2011; cited from earlier work
[4] = test system: rats; conditions: ICV, third brain ventricle, Lawrence et al.; cited from earlier work
[5] = test system: MAPK/ERK1/2 signaling pathway in RC-4B/C cells; assay: MAPK/ERK1/2 signaling in RC-4B/C cells (Western blot); assay type: cell-based, rat; conditions: 10^−6 mol·l^−1, 5 minute incubation
[6] = target: T1, rat PrRP receptor (GPR10) in RC-4B/C cells (Rattus norvegicus, UniProt Q64121); assay: Competitive binding to rat pituitary RC-4B/C cells; conditions: ^125I-rat PrRP31, RC-4B/C cells
T1 construct: host or cells: RC-4B/C rat pituitary cell line
T1 sequence (Q64121 1-370): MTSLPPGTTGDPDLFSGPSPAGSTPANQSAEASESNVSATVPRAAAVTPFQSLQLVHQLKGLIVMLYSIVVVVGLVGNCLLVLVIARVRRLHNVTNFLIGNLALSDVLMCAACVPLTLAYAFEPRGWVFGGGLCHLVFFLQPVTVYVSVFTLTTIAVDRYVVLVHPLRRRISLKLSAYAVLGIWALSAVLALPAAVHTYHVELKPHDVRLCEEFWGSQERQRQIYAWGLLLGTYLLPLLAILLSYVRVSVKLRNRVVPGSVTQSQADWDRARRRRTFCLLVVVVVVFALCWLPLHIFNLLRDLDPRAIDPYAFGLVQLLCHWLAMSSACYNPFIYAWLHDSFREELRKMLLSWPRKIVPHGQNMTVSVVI

[7] = test system: fasted C57BL/6 mice; assay: Food intake in fasted mice after ICV administration; assay type: in vivo; conditions: 4 nmol/mouse; for % control: food intake vs saline
Method: Male C57BL/6 mice (An Lab, Prague 4) were bred in the accredited animal facility in the Institute of Organic Chemistry and Biochemistry, Czech Academy of Sciences, Prague, at the Institute of Molecular Genetics, Prague 4, at the temperature of 22±2° C. with access to food and water ad libitum. The day/night cycle was 12/12 hours (light turned on at 6:00 am). Animals were treated according to the Animal Protection Act (Act No. 246/1992). The males were fed standard chow diet St-1 (Mlýn Kocanda, Praha, Czech Republic) which contained 66% saccharides, 25% proteins and 9% lipids with a caloric value of 3.4 kcal/g.
The food was withdrawn 17 hours prior to injection of lipidated peptide and free access to water was maintained. The administration of saline, PrRP or lipidated analogs was performed either by SC injection at doses of 1-10 mg/kg (volume 0.2 ml/mouse), or by ICV using infusion pump (cannulae were inserted into the third brain ventricle 4 days before the experiment following the procedure of Maixnerová et al. (Maixnerová et al., 2011)). The single dose of peptide was 4 nmol/mouse (5 μl/mouse).
Fifteen minutes after the lipidated peptide administration, the mice were given pre-weighed food. The food was then weighed every 30 minutes for 5-10 hours. The administration of every dose was performed at least twice and one group of mice consisted of at least 6 mice. The results were presented as % of food intake as compared with the control group injected with saline.
Statistical evaluation was performed using program Graph-Pad Prism Software (San Diego, Calif., USA), and the one-way ANOVA with a subsequent Dunnettovým post-hoc test. The difference in food intake between mice injected with saline and mice injected with the examined peptide were considered statistically significant at P<0.05.

[8] = target: T1, rat PrRP receptor (GPR10) in RC-4B/C cells; conditions: Maletínská et al., 2011; cited from earlier work
[9] = target: T2, human PrRP receptor, GPR10, transfected in CHO cells (human, UniProt P49683 1-370); assay: competition with 125I-human PrRP31 on CHO cells with transfected human GPR10
T2 construct: whole, on cells; also called human GPR10 receptor; the human receptor GPR10 in CHO cells
T2 sequence (looked up): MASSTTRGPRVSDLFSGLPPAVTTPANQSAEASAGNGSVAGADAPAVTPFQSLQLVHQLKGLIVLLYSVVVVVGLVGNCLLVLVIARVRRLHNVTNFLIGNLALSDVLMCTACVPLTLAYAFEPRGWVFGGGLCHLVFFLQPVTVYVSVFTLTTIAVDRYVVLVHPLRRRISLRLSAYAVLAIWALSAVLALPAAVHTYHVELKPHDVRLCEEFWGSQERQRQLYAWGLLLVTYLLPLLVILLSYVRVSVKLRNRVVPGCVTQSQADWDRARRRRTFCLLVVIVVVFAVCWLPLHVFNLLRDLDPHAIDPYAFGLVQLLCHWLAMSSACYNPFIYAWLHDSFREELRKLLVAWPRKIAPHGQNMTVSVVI
Summary of the method: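 Incubation lasted 60 min at room temperature. Cells were then solubilised in 0.1 mol/l NaOH and bound radioactivity γ-counted; duplicates, at least three repeats.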

[10] = target: T3, rat PrRP receptor in RC-4B/C cells (rat, UniProt Q64121 1-370); assay: competition with 125I-rat PrRP31 on RC-4B/C cells; Ki by Cheng-Prusoff
T3 construct: whole, on cells; also called the rat receptor; GPR10
T3 sequence (looked up): T1 sequence (Q64121 1-370)
Method: The rat pituitary cell line RC-4B/C (ATCC, Manassas, USA) was grown on 24-well plates which had their bottom coated with polyethyleneimine. The cells were grown to the optimal density of 300-450 thousand per well.
Plates were incubated for 60 minutes at room temperature. After incubation, the cells were solubilized in 0.1 mol/l solution of NaOH and the radioactivity bound to the cells was counted using a γ-counter. The experiments were performed in duplicate and repeated at least three times.

[11] = target: T3, rat PrRP receptor in RC-4B/C cells; assay: competition with 125I-human PrRP31 on RC-4B/C cells; Ki by Cheng-Prusoff
[12] = target: T3, rat PrRP receptor in RC-4B/C cells; assay: competition with 125I-rat PrRP31 on RC-4B/C cells

In the case of CCCCCCCCCCCCCC(=O)N[C@H](C(=O)N1CCC[C@H]1C(=O)N[C@@H](CC(=O)O)C(=O)N[C@H](C(=O)N[C@@H](CC(N)=O)C(=O)N1CCC[C@H]1C(=O)N[C@@H](C)C(=O)N[C@@H](Cc1c[nH]c2ccccc12)C(=O)N[C@@H](Cc1ccc(O)cc1)C(=O)N[C@@H](C)C(=O)N[C@@H](CO)C(=O)N[C@@H](CCCNC(=N)N)C(=O)NCC(=O)N[C@H](C(=O)N[C@@H](CCCNC(=N)N)C(=O)N1CCC[C@H]1C(=O)N[C@H](C(=O)NCC(=O)N[C@@H](CCCNC(=N)N)C(=O)N[C@@H](Cc1ccccc1)C(N)=O)C(C)C)[C@@H](C)CC)[C@@H](C)CC)[C@@H](C)O [Analog 55] (Myristoyl-TPDINPAWYASRGIRPVGRF-NH2), the “Food intake in mice (5 mg/kg SC) % saline-treated group (45 min)” value ([1]; fasted C57BL/6 mice, 5 mg/kg SC, 45 min) is reported as 10% and the “Food intake (amount of pellets consumed)” value [2] is reported as “Significantly lower food intake”.

For “PrRP13: tridecapeptide PrRP13 (containing amino acids 18 to 31 of PrRP31) (AWYASRGIRPVGRF; ends and bridges not checked; UniProt P81277 40-53, looked up, fragment)”, the “anorexigenic activity in mice” value [3] is given as “not sufficient for maintaining the anorexigenic activity”.

In the case of “SRAHQHSMETRTPDINPAWYTGRGIRPVGRF-NH2 [PrRP31, reference compound]”, the “food intake” value ([1]; 45 minutes) is reported as 0.32 g, the “% control” value ([1]; 45 minutes) is reported as 100% and the “food intake” value ([1]; 300 minutes) is reported as 1.15 g. The “% control” value ([1]; 300 minutes) was 105%, the “food intake in rats” value [4] was “significant lowering of food intake” and the ERK signaling [5] was “agonist”. The “% of PrRP31 binding” value [6] was 100%, the “food intake” value ([7]; 45 minutes) was 0.42 g and the “% control” value ([7]; 45 minutes) was 75%. The “food intake” value ([7]; 300 minutes) was 1.37 g and the “% control” value ([7]; 300 minutes) was 104%.

For “[Tyr^31]PrRP20: N-acetylated PrRP20 analog, C-terminal phenylalanine replaced by tyrosine (Maletínská et al., 2011) (Ac-TPDINPAWYASRGIRPVGRY-NH2; ends and bridges not checked; UniProt P81277 34-53, looked up, variant F31Y)”, the “Kb of binding to the pituitary cell line RC-4B/C” value [8] is given as “comparable to values for PrRP31 and PrRP20”.

B1: myristoylated human PrRP20 (analog no. 55) (peptide)
peptide: Myristoyl-TPDINPAWYASRGIRPVGRF-NH2
SMILES: CCCCCCCCCCCCCC(=O)N[C@H](C(=O)N1CCC[C@H]1C(=O)N[C@@H](CC(=O)O)C(=O)N[C@H](C(=O)N[C@@H](CC(N)=O)C(=O)N1CCC[C@H]1C(=O)N[C@@H](C)C(=O)N[C@@H](Cc1c[nH]c2ccccc12)C(=O)N[C@@H](Cc1ccc(O)cc1)C(=O)N[C@@H](C)C(=O)N[C@@H](CO)C(=O)N[C@@H](CCCNC(=N)N)C(=O)NCC(=O)N[C@H](C(=O)N[C@@H](CCCNC(=N)N)C(=O)N1CCC[C@H]1C(=O)N[C@H](C(=O)NCC(=O)N[C@@H](CCCNC(=N)N)C(=O)N[C@@H](Cc1ccccc1)C(N)=O)C(C)C)[C@@H](C)CC)[C@@H](C)CC)[C@@H](C)O
notes: also called analog no; 13
B1 showed a Ki [9] of 4.33 nM, a Ki [10] of 0.41 nM and a Ki [11] of 0.66 nM. The Ki [12] was 0.48 nM.

Reference: patent US9937235B2, “Lipidated peptides as anti-obesity agents” (USTAV ORGANICKE CHEMIE A BIOCHEMIE AKADEMIE VED CR, V.V.I, priority 2012, dated 2018)
